What was measured:
[1] = Liquid, Vibrating tube method
[2] = xn = mol fraction of the nth substance listed; conditions: Liquid, Vibrating tube method, x1 = 1

C[S+](C)[O-] [dimethyl sulfoxide]
mass density [kg/m3], [1]
Conditions | 101 kPa | 10000 kPa | 25000 kPa | 50000 kPa | 75000 kPa | 100000 kPa
298.15 K | 1095.36 | 1101.16 | 1109.51 | 1122.86 | – | –
308.15 K | 1085.36 | 1091.6 | 1100.65 | 1115.13 | 1128.21 | 1136.76
323.15 K | 1070.28 | 1076.9 | 1086.87 | 1102.44 | 1115.12 | 1123.25

OCCO [1,2-ethanediol]
mass density [kg/m3], [1]
Conditions | 101 kPa | 10000 kPa | 25000 kPa | 50000 kPa | 75000 kPa | 100000 kPa
278.15 K | 1123.77 | 1127.65 | 1133.2 | 1141.71 | 1149.55 | 1157.24
288.15 K | – | 1120.87 | 1126.51 | 1135.26 | 1143.65 | 1151.55
298.15 K | – | 1113.97 | 1119.78 | 1128.78 | 1137.41 | 1145.51
308.15 K | – | 1107.05 | 1112.97 | 1122.28 | 1131.41 | 1139.57
323.15 K | 1092.12 | – | – | 1112.75 | 1122.55 | 1130.66

C[S+](C)[O-] [dimethyl sulfoxide] + OCCO
mass density [kg/m3], [2]
Conditions | 101 kPa | 10000 kPa | 25000 kPa | 50000 kPa | 75000 kPa | 100000 kPa
298.15 K | 1095.36 | 1101.16 | 1109.51 | 1122.86 | – | –
308.15 K | 1085.36 | 1091.6 | 1100.65 | 1115.13 | 1128.21 | 1136.76
323.15 K | 1070.28 | 1076.9 | 1086.87 | 1102.44 | 1115.12 | 1123.25
